Laboratory results as given in US10006913B2, “Fluorescent-HAP: a diagnostic stain for HBV cores in cells” (INDIANA UNIVERSITY RESEARCH AND TECHNOLOGY CORPORATION, priority 2013, dated 2018).

Legend:
HBV core protein (Cp) = HBV core protein (Cp) (Hepatitis B virus genotype D subtype ayw, UniProt P03146); test: HBV core protein (Cp) assembly rate, assembly induced by NaCl (FIG. 1); assay type: biochemical; details: 5 μM Cp, assembly induced with 150 mM NaCl, increasing concentration of stain
Description: In this experiment, 5 μM Cp was incubated with or without FL-HAPAlexaFluor® 488 (Compound 5) prior to inducing assembly by addition of 150 mM NaCl.
(§1) FL-HAPAlexaFluor® 488 (Compound 5) retains several critical properties of HAP molecules. […] Most importantly, FL-HAPAlexaFluor® 488 (Compound 5) binds pre-assembled cores with high affinity.

HBV capsid / Cp dimer = HBV capsid / Cp dimer (Hepatitis B virus genotype D subtype ayw, UniProt P03146); test: Size exclusion chromatography (Superose 6) of Cp assembly reactions (FIG. 2); assay type: binding
Description: In this experiment, 5 μM Cp was mixed with FL-HAPAlexaFluor® 488 (Compound 5) and then induced to assemble with 150 mM NaCl. Reactions were resolved on a Superose 6 column after 24 hours. Capsid elutes at 9.5 ml, aggregates at 8 ml, and Cp dimer at 18 ml.
as §1

HBV capsids = HBV capsids (Hepatitis B virus genotype D subtype ayw, UniProt P03146); test: Staining of pre-assembled HBV capsids, sucrose gradient and agarose gel electrophoresis (FIG. 3); assay type: binding
Description: Shown at left: Capsids stained with FL-HAPAlexaFluor® 488 (Compound 5) were separated on a sucrose gradient. […] Shown at right: Capsids, at the listed concentration, were stained with 25 nM FL-HAPAlexaFluor® 488 (Compound 5) prior to electrophoresis.
as §1

[1] = system: HepG2 cells expressing RNA-filled HBV cores; test: Fluorescence microscopy of stained HBV-producing cells (FIG. 4); assay type: cell-based
From the text: (§2) Various forms of FL-HAP may be synthesized thereby varying the resulting solubility properties of the fluorescent stain. The more soluble forms are particularly useful for observing HBV cores in solution or serum; they may also be useful for lightly staining intracellular HBV cores. The ability of the illustrative FL-HAP compound, FL-HAPAlexaFluor® 488 (Compound 5), to cross cell membranes and label HBV-expressing cells and, specifically, to label concentrations of HBV cores in those cells, is shown in FIG. 4. […] The more hydrophobic forms of FL-HAP (e.g., Compound 6 and Compound 7) are particularly useful for rapid staining of tissue samples.

control HepG2 cells = test: Fluorescence microscopy of stained control cells (FIG. 4); assay type: cell-based; details: camera on high gain
From the text: as §2

capsid protein of HBV = capsid protein of HBV (Hepatitis B virus genotype D subtype ayw, UniProt P03146); test: Binding to the capsid protein of HBV (general statement)
Chain of capsid protein of HBV (P03146 whole entry): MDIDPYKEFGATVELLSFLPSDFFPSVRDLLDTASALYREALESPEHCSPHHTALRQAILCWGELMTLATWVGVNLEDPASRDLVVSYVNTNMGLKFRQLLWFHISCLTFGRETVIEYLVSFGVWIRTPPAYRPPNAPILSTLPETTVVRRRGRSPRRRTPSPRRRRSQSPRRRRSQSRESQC

Chain of HBV capsid / Cp dimer (P03146 whole entry): as above
Chain of HBV capsids (P03146 whole entry): as above
Chain of HBV core protein (Cp) (P03146 whole entry): as above

| SMILES | effect on core protein assembly rate (HBV core protein (Cp)) | extent of assembly and size of complexes (HBV capsid / Cp dimer; 5 μM Cp, 150 mM NaCl, Superose 6 column after 24 hours, increasing stain) | free HBV dimer remaining (HBV capsid / Cp dimer; SEC, as stain is added) | formation of aberrant particles (HBV capsid / Cp dimer; light scattering in excess of free capsid, products run faster on SEC than capsid) | copies bound per HBV capsid (HBV capsid / Cp dimer; ratio of protein to fluorophore absorbance across SEC peaks) | species bound by the stain (capsid vs dimer) (HBV capsid / Cp dimer; visualized at 495 nm) | dissociation from HBV capsids (HBV capsids) | affinity for pre-assembled HBV cores (HBV capsids; SEC, sucrose gradient, agarose gel) | binding to capsids on electrophoresis (HBV capsids; capsids stained with 25 nM stain prior to electrophoresis, non-equilibrium conditions) | fluorescent labeling of cells ([1]; HepG2 cells expressing RNA-filled HBV cores) | co-localization of fluorescence with Cp-specific antibodies ([1]; data not shown) | fluorescent labeling of cells (control HepG2 cells) | binding to the capsid protein of HBV (capsid protein of HBV) |
| --- | --- | --- | --- | --- | --- | --- | --- | --- | --- | --- | --- | --- | --- |
| COC(=O)C1=C(CN2CCN(C(=O)CCCNC(=O)c3ccc(-c4c5ccc(=N)c(S(=O)(=O)O)c-5oc5c(S(=O)(=O)O)c(N)ccc45)c(C(=O)O)c3)CC2)NC(c2ccccn2)=NC1c1ccc(F)cc1Cl (stereo not drawn) [Compound 5] | accelerates core protein assembly | more assembly of progressively larger complexes | progressively less free HBV dimer | leads to formation of aberrant particles | approximately 120 copies | only assembled Cp (i.e., capsid) is bound | dissociates slowly | high affinity | binding was evident at nM concentrations | numerous puncta and aggregates of puncta are seen | co-localize with Cp-specific antibodies | no green puncta are seen | specific binding |
| COC(=O)C1=C(CN2CCN(C(=O)CCCNC(=O)CCC3=[N+]4C(=Cc5c(C)cc(C)n5[B-]4(F)F)C=C3)CC2)NC(c2ccccn2)=NC1c1ccc(F)cc1Cl (stereo not drawn) [Compound 7] | – | – | – | – | – | – | – | – | – | – | – | – | specific binding |
| COC(=O)C1=C(CN2CCN(C(=O)CCCNC(=S)Nc3ccc(-c4c5ccc(=O)cc-5oc5cc(O)ccc45)c(C(=O)O)c3)CC2)NC(c2ccccn2)=NC1c1ccc(F)cc1Cl (stereo not drawn) [Compound 6] | – | – | – | – | – | – | – | – | – | – | – | – | specific binding |
